Results: patent US20110020801A1, “Carboxylesterase-1 Polymorphisms and Methods of Use Therefor” (priority 2007, published 2011)
Positions count from the first letter of the chain named.

Columns and labels:
p.Gly143Glu CES1 [1] = target: T1, p.Gly143Glu CES1 (Homo sapiens, UniProt P23141, G143E); experiment: Oseltamivir phosphate hydrolysis by p.Gly143Glu hCES1 S9 (HPLC); assay type: biochemical; details: compared to WT enzyme
T1 construct: inserting a stop codon after CES1A1 gene to yield the constructs expressing CES1 without V5-His tag; expressed in transfected cells
T1 sequence (P23141 18-567 G143E/Y526T): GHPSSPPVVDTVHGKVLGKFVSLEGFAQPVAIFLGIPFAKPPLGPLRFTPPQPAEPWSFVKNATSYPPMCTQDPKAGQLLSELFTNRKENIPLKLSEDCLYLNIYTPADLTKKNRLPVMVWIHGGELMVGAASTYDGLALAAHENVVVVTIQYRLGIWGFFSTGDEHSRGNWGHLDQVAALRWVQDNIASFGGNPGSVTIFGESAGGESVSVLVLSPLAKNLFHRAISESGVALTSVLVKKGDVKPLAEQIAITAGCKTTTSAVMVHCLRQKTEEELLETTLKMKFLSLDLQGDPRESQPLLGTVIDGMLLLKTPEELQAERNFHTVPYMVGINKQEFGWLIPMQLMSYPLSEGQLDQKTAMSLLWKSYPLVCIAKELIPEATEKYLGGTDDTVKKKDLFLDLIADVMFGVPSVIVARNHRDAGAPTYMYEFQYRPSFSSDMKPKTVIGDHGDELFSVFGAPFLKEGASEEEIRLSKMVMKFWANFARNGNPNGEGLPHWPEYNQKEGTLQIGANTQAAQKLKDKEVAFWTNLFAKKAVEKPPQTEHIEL

p.Asp260fs CES1 [2] = target: T2, p.Asp260fs CES1 (Homo sapiens, UniProt P23141); experiment: Oseltamivir phosphate hydrolysis by p.Asp260fs hCES1 S9 (HPLC); assay type: biochemical; details: measured by conversion to OC
T2 construct: a frameshift mutation that alters residues 260-299 and causes early truncation at a premature stop codon; expressed in transfected cells
T2 sequence (P23141 with tags, fused parts or gaps): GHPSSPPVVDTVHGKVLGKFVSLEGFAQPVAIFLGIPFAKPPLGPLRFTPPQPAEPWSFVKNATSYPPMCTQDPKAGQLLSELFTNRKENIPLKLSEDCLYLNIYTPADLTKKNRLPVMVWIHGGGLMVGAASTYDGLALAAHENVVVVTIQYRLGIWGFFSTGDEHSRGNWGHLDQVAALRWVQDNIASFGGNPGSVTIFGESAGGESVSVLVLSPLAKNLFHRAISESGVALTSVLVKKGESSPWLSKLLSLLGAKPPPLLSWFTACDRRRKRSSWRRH

[3] = Pharmacokinetic study of orally administered racemic MPH in normal volunteers; assay type: in vivo, human
Protocol: Analysis of Pharmacokinetic, Hemodynamic, and Statistical Data. Standard pharmacokinetic analyses were applied to the MPH data using WinNonLin software (Pharsight, Mountainview, Calif.) and are described in a previous publication.^10 The AUC, Cmax, and t1/2 were analyzed using the Extreme Studentized Deviate (ESD) single-outlier procedure^12 to determine whether the parameter measurements for the slow metabolizer constituted true statistical outliers. For each parameter, the ESD procedure confirmed the measurement as an outlier at the p<0.01 level. Because this procedure is known to be conservative, the data from the aberrant metabolizer were reassessed using a similar procedure with respect to the normal participants only.

p.Gly143Glu CES1 [4] = target: T1, p.Gly143Glu CES1; experiment: MPH hydrolysis to ritalinic acid by S9 of cells expressing p.Gly143Glu CES1 (HPLC); assay type: biochemical; details: S9 500 μg/ml, even at very high S9 concentration (2 mg/ml); 37° C., 2 h
Excerpt: (§1) The desired plasmid was designed such that the recombinant CES1 would be expressed in mammalian cells with a V5-His tag to facilitate detection and purification. Additionally, another plasmid was generated by inserting a stop codon after CES1A1 gene to yield the constructs expressing CES1 without V5-His tag. […] Thus, only untagged CES1 and its associated mutants were used in the enzymatic hydrolysis study. Two constructs of CES1 mutations, p.Gly143Glu and p.Asp260fs, were generated using a site-directed mutagenesis assay. All constructs were subjected to DNA sequencing analysis to confirm that the desired plasmids were obtained. The identified CES1A1 plasmids (WT, p.Gly143Glu, and p.Asp260fs) were co-transfected with pOG44 plasmid at a ratio of 1:10 into Flp-In™-293 cells using […] (Invitrogen, Carlsbad, Calif.). Additionally, the self-ligated pcDNA5/FRT/V5-His-TOPO® vector was included as a vector control. Twenty-four hours after transfection, cells were washed with PBS and fresh complete medium (Dulbecco's modified Eagle's medium containing 10% fetal bovine serum) was added. […]
(§2) After attaining approximately 95% confluence, cells were rinsed and harvested in PBS containing 10 mM HEPES (pH 7.4). […] The protein concentration was determined using a Pierce BCA assay kit (Rockford, Ill.).
(§3) For the study of MPH hydrolysis, the reaction was conducted in 1.5 mL eppendorf tubes with a final S9 concentration of 0.5 mg/mL at a total volume of 100 μL. […] Concentrations of the primary phase I MPH metabolite produced via hydrolysis, ritalinic acid (RA), was determined utilizing an established HPLC method described below.
(§4) Thus, following the enzymatic assay, the values determined for spontaneous PNP and RA hydrolysis were subtracted from the total PNP and RA production. […] All collected data were fit to the Michaelis-Menten equation, and kinetic parameters were calculated using nonlinear regression analysis with Graphpad Prism software (Graphpad Software Inc., San Diego, Calif.) […]

p.Asp260fs CES1 [5] = target: T2, p.Asp260fs CES1; experiment: MPH hydrolysis to ritalinic acid by S9 of cells expressing p.Asp260fs CES1 (HPLC); assay type: biochemical; details: S9 500 μg/ml, even at very high S9 concentration (2 mg/ml); 37° C., 2 h
Excerpt: as §1, §2, §3, §4

[6] = Hemodynamic measurements after MPH administration in normal volunteers; assay type: in vivo, human; details: after 0.3 mg/kg MPH
Excerpt: The inventor considered the set of measures for each endpoint to be a multivariate vector, and assessed the Mahalanobis distance for subject's measurements. The Mahalanobis distance, a measure of distance from a central multivariate mean relative to the variance of the endpoints, is useful for identifying outliers via referral to the F distribution. This analysis assumes no explicit model of time effects on the vital signs, but recognizes the potential correlation between the repeated measures over time on each participant, and tests for simultaneous differences from the mean over the set of time points while controlling the Type I error rate. For each of the four endpoint vectors, the inventor tested the a priori hypothesis that the slow metabolizer's measurements were outliers by comparison to Wilks's critical values (α=0.0125, critical value: 13.8).^13 Because only testing outlier status for this single participant was tested, no Bonferroni corrections were made within participants; however, each test was performed at the Bonferroni-corrected α=0.0125 level to adjust for the four endpoints being tested. There were little differences in plasma MPH concentrations between the slow metabolizer and their study peers during the 0-1.5 h time frame (FIG. 6), which is likely due to a delay in tablet disintegration, dissolution and absorption. After this initial period MPH is subject to first-pass metabolism and hCES1 mediated stereoselective hydrolysis and the two concentration vs. time curves rapidly diverge from one another (FIGS. 2-3). Therefore, based on this finding and a visual examination of the data it was decided that a second analysis which excluded measurements taken during the 0-1.5 hr time points would be more appropriate.

[7] = Spontaneous hydrolysis in reaction buffer; assay type: physicochemical; details: PBS containing 10 mM HEPES, pH 7.4
Protocol: Thus, following the enzymatic assay, the values determined for spontaneous PNP and RA hydrolysis were subtracted from the total PNP and RA production. […] All collected data were fit to the Michaelis-Menten equation, and kinetic parameters were calculated using nonlinear regression analysis with Graphpad Prism software (Graphpad Software Inc., San Diego, Calif.)

[8] = substrate: CCOC(=O)C1=C[C@@H](OC(CC)CC)[C@H](NC(C)=O)[C@@H](N)C1; experiment: Oseltamivir phosphate hydrolysis to oseltamivir carboxylate by WT hCES1 S9 (HPLC); assay type: biochemical, human; details: other: OP conversion to OC, 37° C., 10 min
[9] = substrate: COC(=O)[C@H](c1ccccc1)[C@H]1CCCCN1; experiment: purified protein, by the assay type; details: other: MPH hydrolysis, S9 0.5 mg/mL, 37° C., 2 hours, mean ± S.D. (n = 3)

Molecule: CCOC(=O)C1=C[C@@H](OC(CC)CC)[C@H](NC(C)=O)[C@@H](N)C1 [OP, oseltamivir phosphate]
- enzymatic activity on oseltamivir hydrolysis (p.Gly143Glu CES1 [1]): Profoundly decreased enzymatic activity
- enzymatic activity on oseltamivir hydrolysis (p.Asp260fs CES1 [2]): did not result in any detectable hydrolysis
- enzymatic activity on oseltamivir hydrolysis (p.Asp260fs CES1 [2]; listed as oseltamivir): No catalytic activity

Molecule: CCOC(=O)C(c1ccccc1)C1CCCCN1 (stereo not shown) [ethylphenidate]
- ethylphenidate concentrations after co-administration of methylphenidate with ethanol ([3]; every subject except the slow metabolizer): Detectable concentrations
- ethylphenidate formation after methylphenidate and ethanol administered together ([3]; slow metabolizer): unable to form ethylphenidate

Molecule: COC(=O)C(c1ccccc1)C1CCCCN1 (racemic) [MPH, methylphenidate]
- catalytic activity towards MPH hydrolysis (p.Gly143Glu CES1 [4]): too low to be determined
- catalytic activity towards MPH hydrolysis (p.Asp260fs CES1 [5]): too low to be determined
- Cmax of slow metabolizer relative to the mean of the other subjects ([3]; single oral 0.3 mg/kg racemic MPH, plasma): approximately 7 fold
- Diastolic Blood Pressure, Maximum Value, Mean (SD) ([6]; 19 study peers): 68 (8)
- Mean Arterial Pressure, Maximum Value, Mean (SD) ([6]; 19 study peers): 85 (8)
- Pulse, Maximum Value, Mean (SD) ([6]; 19 study peers): 74 (11)
- Systolic Blood Pressure, Maximum Value, Mean (SD) ([6]; 19 study peers): 120 (10)
- Diastolic Blood Pressure, Maximum Value, Outlier ([6]; slow metabolizer): 78
- Mean Arterial Pressure, Maximum Value, Outlier ([6]; slow metabolizer): 97
- Pulse, Maximum Value, Outlier ([6]; slow metabolizer): 93
- Systolic Blood Pressure, Maximum Value, Outlier ([6]; slow metabolizer): 138
- stability in reaction buffer [7]: spontaneously hydrolyzed

B1: WT hCES1 (Homo sapiens) (protein)
chain: T1 sequence (P23141 18-567 G143E/Y526T) with E126G, T509Y
notes: inserting a stop codon after CES1A1 gene to yield the constructs expressing CES1 without V5-His tag; expressed in transfected cells
- Km [8]: 1381.6 µM
- Vmax [8]: 145.3 nmole/min/mg protein

B2: WT CES1 (Homo sapiens) (protein)
chain: T1 sequence (P23141 18-567 G143E/Y526T) with E126G, T509Y
- Km [9]: 663.5 ± 210.0 µM
- Vmax [9]: 177.2 ± 29.6 pmole/min/mg protein
- Vmax/Km [9]: 0.27 μl/min/mg protein
